The subject of this test is HepG2 cells. Nature of the test: H2O2-induced intracellular ROS scavenging in HepG2 cells (DCFH-DA, flow cytometry). The format is cell-based, human. As to conditions: VC 10.0 µmol/L 24 h, then 1.2 mmol/L H2O2 seven hours, median (25%, 75% quartiles), n = 4, model M 139.46 %, blank K 101 %. The method, then:
According to Liu et al. (2020), the H2O2-induced scavenging activity of reactive oxygen species was evaluated. In this experiment, various groups were established, including the blank, sample, positive control, and model groups. Refer to the Supplementary Materials for specific information. […]
and NDPF concentrations were 1.0 mmol/L, and the positive control rosiglitazone concentration was 20.0 µmol/L. At the end of the incubation, the glucose content in the culture medium was measured using the glucose oxidase-peroxidase method kit by Nanjing Jiancheng Biological Co., Ltd., and the glucose content was calibrated by measuring the cell activity using the MTT […]
7. Evaluation of scavenging capacity against intracellular ROS
HepG2 cells (2.0 mL/well, 1×10^4 cells/well) were inoculated in 6-well plate and cultured overnight. VC (10.0 µmol/L) or peptides YPLPR, AFEPLR, and NDPF (1.0 mmol/L) were added to each well, and the cells were incubated for an additional 24 hours. Following the incubation, the culture medium was aspirated, and the cells were washed thoroughly with PBS twice. Subsequently, cells in all experimental groups, except for the control group, were exposed to 1.2 mmol/L H2O2 for seven hours. […] After incubation, the cells were rinsed twice with culture medium devoid of FBS and analyzed using a Millipore flow cytometer (Guava easy Cyte 6-2L, Billerica, MA) within 30 minutes.
In general terms: In flow cytometry, cells or beads pass a laser one at a time.

Molecules are shown by their SMILES.

Turning to `O=C1O[C@H]([C@@H](O)CO)C(O)=C1O` [VC], the “Relative intracellular ROS content” value is on record as 92.03 (90.83, 98.11) %.

For the origin of these results see article PMC11085682, “Identification of Novel Peptides in Distillers’ Grains as Antioxidants, α-Glucosidase Inhibitors, and Insulin Sensitizers: In Silico and In Vitro Evaluation” (Nutrients, 2024).
